Data from US20240261234A1, “USE OF C[…] THE TREATMENT OF NOCTURNAL SNORING” (GW Research Limited, priority 2014, published 2024).
Several values for one entry are separate records, joined by “and”; a condition that tells them apart may be missing. Equal values may be shown once. Entries after “also recorded” stand apart in the source; their conditions may differ.

How the values were obtained:
[1] = Solubility of the drug substance in water; type: physicochemical
Excerpt: The drug substance, CBD is insoluble in water. Sesame oil was selected as an excipient to solubilize the drug substance.

[2] = test system: nocturnal snoring in a patient with Doose Syndrome; assay: Expanded access compassionate use program: nocturnal snoring with CBD therapy; type: in vivo, children and young adults
Protocol: (§1) Of 137 children and young adults with severe, childhood onset treatment-resistant epilepsy (TRE), six suffered from Doose Syndrome. These subjects were tested with a highly purified extract of cannabidiol (CBD) obtained from a cannabis plant. The participants in the study were part of an expanded access compassionate use program for CBD.
(§2) All of these patients with a diagnosis of Doose Syndrome presented with multiple seizure types which included tonic-clonic seizures; myoclonic seizures; atonic seizures; absence seizures; myoclonic-absence seizures; and tonic seizures. In addition nocturnal snoring was encountered by one of the patients in the study.
(§3) The patients then received a highly purified CBD extract (greater than 98% CBD w/w) in sesame oil, of known and constant composition, at a dose of 5 mg/kg/day in addition to their baseline anti-epileptic drug (AED) regimen.
Table 5 below describes the data that was collated for the other seizure types including nocturnal snoring.

[3] = test system: seizures in treatment-resistant epilepsy characterised by Doose Syndrome; assay: Expanded access compassionate use program: seizure frequency with CBD therapy in Doose Syndrome; type: in vivo, children and young adults
Protocol: as §1, §2
Both patients entered a baseline period of 4 weeks when parents/caregivers kept prospective seizure diaries, noting all countable motor seizure types.
as §3
Laboratory testing for hematologic, liver, kidney function, and concomitant AED levels was performed at baseline, and after CBD therapy.
All patients were taking at least two concomitant anti-epileptic drugs. These included clobazam; diazepam; lacosamide; lamotrigine; levetiracetam; lorazepam; nordiazepam; n-desmethylclobazam; phenytoin; valproic acid; zonisamide. The average number of concomitant antiepileptic drugs being taken was 2.7. The majority took either clobazam and/or valproic acid.
There were 6 children and young adult patients who received at least 3 months of treatment all of whom suffered from treatment-resistant epilepsy which is characterised by Doose Syndrome.
The change from baseline in the number of different seizures and total number of seizures after 16 weeks treatment are summarized in Table 4 below.

apnea hypopnea index = settings: short term; small trial; cited from earlier work
[4] = nocturnal snoring (n = 1), Doose Syndrome patient
[5] = absence seizures (n = 3), Doose Syndrome patients
[6] = atonic seizures (n = 2), Doose Syndrome patients
[7] = tonic-clonic seizures (n = 5), Doose Syndrome patients

C=C(C)[C@@H]1CCC(C)=C[C@H]1c1c(O)cc(CCCCC)cc1O [CBD, Cannabidiol]
Solubility in water [1]: insoluble
Effect on occurrence of nocturnal snoring (in words) ([2]; a child with Doose Syndrome): completely eliminate the occurrence of nocturnal snoring
Patients with <50% reduction in nocturnal snoring [2, 4]: 0%
Patients with >50% reduction in nocturnal snoring [2, 4]: 100%
Patients with <50% reduction in absence seizures [3, 5]: 0%
Patients with >50% reduction in absence seizures [3, 5]: 100%
Number of Doose syndrome patients with a decrease in total seizure frequency ([3]; after 3 months of therapy, of 6 patients): five
Patients with <50% reduction in atonic seizures [3, 6]: 50%
Patients with >50% reduction in atonic seizures [3, 6]: 50%
Effect on seizure sub-types associated with Doose Syndrome (in words) ([3]; patients not responding well to existing AED): very effective treatment for all of the seizure sub-types; also recorded: significantly reduces the number of seizures
Change in baseline (%) in total seizure frequency ([3]; per subject (subjects 1-6, Doose Syndrome), after 16 weeks treatment, CBD 5 up to 25 mg/kg/day added to baseline AED): −100.0% (2×) and 65.8% and −67.4% and −68.7% and −92.0%
>50% reduction in seizures (total seizures) ([3]; per subject (subjects 1-6, Doose Syndrome), after 16 weeks treatment, Yes/No): Yes (5×) and No
Patients with <50% reduction in tonic-clonic seizures [3, 7]: 20%
Patients with >50% reduction in tonic-clonic seizures [3, 7]: 80%

CCCCCc1cc(O)c2c(c1)OC(C)(C)[C@@H]1CCC(C)=C[C@@H]21 [dronabinol, Tetrahydro- cannabinol]
Effect on apnea hypopnea index (apnea hypopnea index): able to reduce the apnea hypopnea index
